Experiment: Pharmacokinetic study of minocycline in CSF of rats, quantified by the microbiological method with 4PL curve fit
Format: in vivo
Details: normal Sprague-Dawley rats, intra CSF injection of 1 mg/mL MC solution
Protocol: A curve representing the percentage of bacterial growth inhibition versus antibiotic concentration applied to each well was also obtained.. Subsequently, using a curve fit analysis called “Four Parameter Curve Logistic (4PL)”, the values of antibiotic concentrations in the biological sample were obtained.
Cerebrospinal fluid (CSF) collection: It was collected by transcutaneous cisternal magna puncture. Minocycline injections were performed by the same route.
Curve fitting: Four Parameter Logistic Curve (4PL) analysis was applied to minocycline antibiotic obtained from FIG. 1:
Minocycline (MC), an antibiotic belonging to the family of tetracyclines, was used to carry out pharmacokinetic studies of CSF in Sprague-Dawley rats. Briefly, normal rats were injected via intra CSF an MC solution of 1 mg/mL, for subsequent sampling of CSF at time zero, 1, 10 and 18 hours. […] At 18 hours it is still possible to detect a concentration of 69 ng/mL (FIG. 4).

SMILES: CN(C)c1ccc(O)c2c1C[C@H]1C[C@H]3[C@H](N(C)C)C(O)=C(C(N)=O)C(=O)[C@@]3(O)C(O)=C1C2=O [Minocycline]
- detection of MC in CSF (CSF sampled at time zero, 1, 10 and 18 hours): detected at all times
- concentration at 18 h (rat, cerebrospinal fluid (CSF), other: intra CSF (transcutaneous cisternal magna puncture), CSF sampled at 18 hours (FIG. 4)): 69 ng/mL

Reference: patent US20170037446A1, “METHOD FOR THE MICROBIOLOGICAL DETERMINATION OF TRACES OF A[…] LOW VOLUME BIOLOGICAL SAMPLES” (UNIVERSIDAD DE SANTIAGO DE CHILE, priority 2013, published 2017)
